{"source": "paper PMC3896336", "about": "“Discovery of a Novel Target for the Dysglycemic Chromogranin A Fragment Pancreastatin: Interaction with the Chaperone GRP78 to Influence Metabolism” (PLoS ONE, 2014)", "key": {"db/db mice": {"test_system": "db/db mice", "design": "method as in PMID 16931765", "conditions": "ref [38]; cited from earlier work"}, "[1]": {"test_system": "human G6P-ase promoter-luciferase reporter, HepG2 hepatocytes", "assay": "G6Pase promoter-luciferase reporter activity in HepG2 hepatocytes", "format": "cell-based", "conditions": "for effect on reduction of G6Pase promoter activity by GRP78 over-expression: PST 100 nM, HepG2 with pCMV-GRP78, Fig. 6B; for effect on reduction of G6Pase promoter activity by GRP78 over-expression / basal G6Pase-luciferase promoter activity with GRP78 ATPase inhibitor: VER-155008 1 µM or ADP 10 µM; for basal G6Pase-luciferase promoter activity with GRP78 ATPase inhibitor: HepG2, Fig. 6B", "experimental": "The human G6P-ase promoter-luciferase reporter plasmid has been described. The GRP78 (BIP) promoter-luciferase reporter was a gift from Bruce M. Spiegelman (Harvard Medical School). The pCMV promoter-driven human GRP78 (HSPA5) expression plasmid was from Origene <www.origene.com/>. pSV-Beta-Gal (a transfection efficiency control plasmid, in which the SV40 early promoter drives expression of beta-galactosidase) was obtained from Promega <www.promega.com>.\nCells were plated on 24 well tissue culture plates the day before transfection. 0.5 to 1.0 µg of total DNA per well was used for transfection with Transfectin (BioRad). In some experiments, pSV-Beta-Gal (Promega; in which the SV40 early promoter drives expression of beta-galactosidase) was co-transfected as a transfection efficiency control. After 5 hrs supernatants were removed and fresh media containing different compounds as mentioned in the respective figures were added. 18 hrs after transfection, supernatants were removed and cells were lysed in passive lysis buffer (Promega) and the luciferase and beta-galactosidase activity were measured. Luciferase activity was normalized by beta-galactosidase as well as cellular protein, determined by dye-binding (coomassie G-250; BioRad).\nFigure 5 PST acts on both uptake and mobilization steps for glucose: Effects on cellular glucose metabolism and insulin action. (A) PST and glucose uptake. Mouse 3T3-L1 cells were induced to differentiate into adipocytes, and 7–10 days post-differentiation glucose uptake was measured by incubating cells with 2-deoxy-[^3H]-glucose in the presence or absence of PST (100 nM), insulin (100 nM), or insulin plus PST (100 nM each). (B) Glucose mobilization and PST: Effects on expression of the gluconeogenic/glycogenolytic enzyme G6Pase (glucose-6-phosphatase). Human HepG2 hepatocytes were transfected with a glucose-6-phosphatase (G6P-ase)→luciferase reporter plasmid along with a beta gal reporter plasmid as mentioned in the experimental procedures, and 5 hrs after transfection cells were treated with PST (100 nM), insulin (100 nM), or both insulin and PST (100 nM each). Cells were harvested at 18–20 hrs after transfection to measure luciferase activity, beta gal activity and protein.\n(§1) Figure 6 Role of the gluconeogenic/glycogenolytic enzyme G6Pase: Response to PST, GRP78, and inhibition of GRP78's ATPase enzymatic activity. (A) G6Pase expression, PST, and GRP78. Human HepG2 hepatocytes were transfected with G6P-ase→luciferase, along with pCMV-GRP78 or an empty vector (pCMV promoter without insert). 5 hrs after transfection, cells were treated with PST (100 nM) itself (versus mock), or by UPR activation (tunicamycin, 5 µg/mL; or thapsigargin, 0.3 µM). Cells were harvested at 18–20 hrs to measure luciferase activity and protein. (B) G6Pase expression during ATPase enzymatic activity inhibition of GRP78. Human HepG2 hepatocytes were transfected as in (A), and 5 hrs later were treated with the GRP78 ATPase inhibitors VER-155008 (1 µM), ADP (10 µM), or PST (100 nM). Cells were harvested at 18–20 hrs to measure luciferase activity and protein. (C) GRP78 expression: Visualization by immunoblot. Changes in GRP78 expression are shown by anti-GRP78 immunoblot (control: anti-actin), during either UPR activation (by thapsigargin 0.3 µM or tunicamycin 5 µg/mL), or exogenous over-expression (transfection of pCMV-GRP78)."}, "[2]": {"test_system": "GRP78 protein expression, HepG2 hepatocytes", "assay": "GRP78 protein expression by anti-GRP78 immunoblot in hepatocytes", "format": "cell-based, human", "conditions": "UPR activation by tunicamycin 5 µg/mL or thapsigargin 0.3 µM; Fig. 6C", "experimental": "as §1"}, "cellular glucose uptake": {"test_system": "cellular glucose uptake", "conditions": "naturally occurring human variant; ref [14]; cited from earlier work", "excerpt": "The activity of PST as a regulatory gastroenteropancreatic peptide has been established in the light of a variety of biological effects in a number of tissues [6]–[9], including its role in modulation of energy metabolism, with a general counter-regulatory effect to insulin. […] Metabolic effects of PST have been c ..."}, "GRP78 (HSPA5, BIP)": {"test_system": "GRP78 (HSPA5, BIP)", "assay": "Ligand affinity isolation of PST binding protein from mouse liver membranes (biotinylated peptide as bait, streptavidin agarose, SDS-PAGE, LC-MS/MS)", "conditions": "control ligand affinity experiment, immobilized biotinylated catestatin (human CHGA352–372), liver homogenate; results not shown"}}, "note": "“Also recorded” adds a separate entry of the source. Where no end group is shown, it is not given here.", "data": [{"molecule": "O=C(O)CCCc1ccccc1", "note": "[4-phenylbutyric acid (PBA), 4-phenylbutyric acid]", "values": [{"measurement": "ER stress, glucose homeostasis and insulin sensitivity", "setting": "db/db mice", "result": "reduced ER stress, with restored glucose homeostasis and improved insulin sensitivity"}]}, {"molecule": "Nc1ncnc2c1ncn2[C@@H]1O[C@H](COP(=O)(O)OP(=O)(O)O)[C@@H](O)[C@H]1O", "note": "[ADP, adenosine 5′-diphosphate]", "values": [{"measurement": "effect on reduction of G6Pase promoter activity by GRP78 over-expression", "setting": "[1]", "result": "could not fully overcome the effect of GRP78 over-expression; also recorded: could still be partially reversed"}, {"measurement": "basal G6Pase-luciferase promoter activity with GRP78 ATPase inhibitor", "setting": "[1]", "result": "basal G6Pase-luciferase promoter activity rose (Fig. 6B) to a level comparable to PST activation"}]}, {"molecule": "C[C@H](CCC(=O)NCCS(=O)(=O)O)[C@H]1CC[C@H]2[C@@H]3[C@@H](O)C[C@@H]4C[C@H](O)CC[C@]4(C)[C@H]3CC[C@]12C", "note": "[TUDCA, tauroursodeoxycholic acid]", "values": [{"measurement": "ER stress, glucose homeostasis and insulin sensitivity", "setting": "db/db mice", "result": "reduced ER stress, with restored glucose homeostasis and improved insulin sensitivity"}]}, {"molecule": "N#Cc1ccc(COC[C@H]2O[C@@H](n3c(NCc4ccc(Cl)c(Cl)c4)nc4c(N)ncnc43)[C@H](O)[C@@H]2O)cc1", "note": "[VER-155008]", "values": [{"measurement": "effect on reduction of G6Pase promoter activity by GRP78 over-expression", "setting": "[1]", "result": "could not fully overcome the effect of GRP78 over-expression; also recorded: could still be partially reversed"}, {"measurement": "basal G6Pase-luciferase promoter activity with GRP78 ATPase inhibitor", "setting": "[1]", "result": "basal G6Pase-luciferase promoter activity rose (Fig. 6B) to a level comparable to PST activation"}]}, {"molecule": "C/C=C(/C)C(=O)O[C@H]1C(C)=C2[C@H]([C@@H]1OC(=O)CCCCCCC)[C@@](C)(OC(C)=O)C[C@H](OC(=O)CCC)[C@@]1(O)[C@H]2OC(=O)[C@@]1(C)O", "note": "[thapsigargin]", "values": [{"measurement": "increase in GRP78 protein expression as compared to untreated cells", "setting": "[2]", "result": "~15", "unit": "fold"}]}, {"molecule": "Gly297Ser: naturally occurring human PST variant, Gly297Ser in the functionally important carboxyl terminus of the peptide (SEALAVDGAGKPGAEEAQDPEGKGEQEHSQQKEEEEEMAVVPQSLFRG; ends and bridges not checked; UniProt P10645 272-319, looked up, variant G297S)", "values": [{"measurement": "potency to inhibit cellular glucose uptake", "setting": "cellular glucose uptake", "result": "substantially increasing its potency to inhibit cellular glucose uptake"}]}, {"molecule": "catestatin", "values": [{"measurement": "pull down of GRP78", "setting": "GRP78 (HSPA5, BIP)", "result": "did not pull down the GRP78 protein"}]}, {"molecule": "insulin", "values": [{"measurement": "suppression of PST-induced activation of the G6Pase promoter", "setting": "[1]; insulin 100 nM plus PST 100 nM, HepG2, Fig. 5B", "result": "~40", "unit": "%"}]}, {"molecule": "tunicamycin", "values": [{"measurement": "increase in GRP78 protein expression as compared to untreated cells", "setting": "[2]", "result": "~15", "unit": "fold"}]}]}
